Assay results reported in patent US9611251B2, “Substituted piperidine compounds and their use as orexin receptor modulators” (Janssen Pharmaceutica NV, priority 2013, dated 2017).

How the values were obtained:
rat orexin 1 receptor = rat orexin 1 receptor (Rattus norvegicus, UniProt P56718); test: Rat orexin 1 receptor radioligand binding; conditions: rat orexin 1 receptor radioligand binding; averages of 2-20 runs; read-out: rOX1 Ki
Procedure, shortened: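 Cell-suspension competition binding used 4 nM final tritiated thiazolyl-pyrrolidinyl-methanone radioligand in PBS, ≤0.1% DMSO, with 10 µM almorexant defining nonspecific binding. Filter-bound radioactivity was counted in triplicate. IC50 came from one-site competition fits and was converted to Ki using the predetermined Kd.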

human orexin 2 receptor = human orexin 2 receptor (Homo sapiens (Human), UniProt O43614); test: Human orexin 2 receptor radioligand binding ([3H]-EMPA); conditions: averages of 2-20 runs, read-out: hOX2 Ki
Procedure, shortened: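 Competition binding using homogenized HEK293 cells stably expressing human orexin 2 receptor, [3H]-EMPA at 2 nM final and ≤0.1% DMSO; nonspecific binding set with 10 μM almorexant. Filter-bound radioactivity counted by scintillation; one-site competition IC50 converted to Ki using pre-determined Kd, compounds run in triplicate.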

human orexin 1 receptor = human orexin 1 receptor (Homo sapiens, UniProt O43613); test: Human orexin 1 receptor radioligand binding; conditions: human orexin 1 receptor radioligand binding; averages of 2-20 runs; read-out: hOX1 Ki
Experimental: The in vitro affinity of the compounds of the invention for the rat/human orexin 1 and human orexin 2 receptors was determined by competitive radioligand binding using [^3H](1-(5-(2-fluoro-phenyl)-2-methyl-thiazol-4-yl)-1-((S)-2-(5-phenyl-(1,3,4)oxadiazol-2-ylmethyl)-pyrrolidin-1-yl)-methanone) (Langmead et al., 2004) and [^3H]EMPA (n-ethyl-2[96-methoxypyridin-3-yl)-(toluene-2-sulfonyl)-amino]-N-pyridin-3-ylmethyl acetamide), respectively (Langmead et al., 2004, British Journal of Pharmacology 141:340-346; Malherbe et al., 2004, British Journal of Pharmacology 156:1326-41).
Data are analyzed using pc-Sandy macro and graphed on Graphpad Prism 5. For analysis, each concentration point is averaged from triplicate values and the averaged values are plotted on Graphpad Prism. The IC50 was determined by applying the following equation (GraphPad Prism 5.0, SanDiego) for one site competition where X=log (concentration) and Y=specific binding. Top denotes the total [^3H]-(1-(5-(2-fluoro-phenyl)-2-methyl-thiazol-4-yl)-1-((S)-2-(5-phenyl-(1,3,4)oxadiazol-2-ylmethyl)-pyrrolidin-1-yl)-methanone) binding, bottom denotes the nonspecific [^3H]-(1-(5-(2-fluoro-phenyl)-2-methyl-thiazol-4-yl)-1-((S)-2-(5-phenyl-(1,3,4)oxadiazol-2-ylmethyl)-pyrrolidin-1-yl)-methanone) binding. Graphpad Prism calculates Ki value from IC50 and the pre-determined Kd values for [^3H]-(1-(5-(2-fluoro-phenyl)-2-methyl-thiazol-4-yl)-1-((S)-2-(5-phenyl-(1,3,4)oxadiazol-2-ylmethyl)-pyrrolidin-1-yl)-methanone) and [3H]-EMPA. The Ki for each compound is then uploaded into 3DX. Each run comprises individual compounds in triplicate.
Rat and Human Orexin 1 Receptor Radioligand Binding Studies
Human Embryonic Kidney 293 cells (HEK293) stably expressing rat orexin 1 receptor (Genebank accession number NM_001525) or Chinese ovary cells (CHO) stably expressing human orexin 1 receptor (Genebank accession number NM_001526) were grown to confluency in DMEM (Hyclone, cat #SH30022), 10% FBS, 1×Pen/Strep, 1× sodium pyruvate, 10 mM HEPES, 600 μg/mL G418 and DMEM/F12 (Gibco, Cat #11039), 10% FBS, 1×Pen/Strep, 600 μg/mL G418 media, respectively on 150 cm^2 tissue culture plates, washed with 5 mM EDTA in PBS (HyClone Dulbecco's Phosphate Buffered Saline 1× with Calcium and Magnesium, Cat #SH30264.01, hereafter referred to simply as PBS) and scraped into 50 ml tubes. After centrifugation (2K×G, 5 min at 4° C.), the supernatant was aspirated and the pellets frozen and stored at −80° C. Cells were resuspended in PBS in the presence of 1 tablet of protease inhibitor cocktail (Roche, Cat. #11836145001) per 50 mL. Each cell pellet from a 15 cm plate was resuspended in 10 mL, stored on ice, and homogenized for 45 sec prior to addition to the reactions. Competition binding experiments in 96 well polypropylene plates were performed using [^3H]-(1-(5-(2-fluoro-phenyl)-2-methyl-thiazol-4-yl)-1-((S)-2-(5-phenyl-(1,3,4)oxadiazol-2-ylmethyl)-pyrrolidin-1-yl)-methanone) (Moraveck Corporation, specific activity=35.3 Ci/mmol), diluted to a 10 nM concentration in PBS (4 nM final). […] The final concentration of DMSO in the reactions is equal to or less than 0.1%. Total and nonspecific binding was determined in the absence and presence of 10 μM almorexant. The total volume of each reaction is 200 μL (20 μL of diluted compounds, 80 μL of [^3H]-(1-(5-(2-fluoro-phenyl)-2-methyl-thiazol-4-yl)-1-((S)-2-(5-phenyl-(1,3,4)oxadiazol-2-ylmethyl)-pyrrolidin-1-yl)-methanone) diluted in PBS and 100 μL of the cell suspension). Reactions were run for 60 min at room temperature and terminated by filtration through GF/C filter plates (PerkinElmer, Cat. #6005174) presoaked in 0.3% polyethylenimine using the cell harvester (PerkinElmer Filtermate). The plates were washed 3 times by aspirating 30 ml PBS through the plates. Plates were dried in 55° C. oven for 60 min, scintillation fluid was added, and the radioactivity was counted on a Topcount (Packard).

human orexin 2 receptor, sequence (O43614 whole entry): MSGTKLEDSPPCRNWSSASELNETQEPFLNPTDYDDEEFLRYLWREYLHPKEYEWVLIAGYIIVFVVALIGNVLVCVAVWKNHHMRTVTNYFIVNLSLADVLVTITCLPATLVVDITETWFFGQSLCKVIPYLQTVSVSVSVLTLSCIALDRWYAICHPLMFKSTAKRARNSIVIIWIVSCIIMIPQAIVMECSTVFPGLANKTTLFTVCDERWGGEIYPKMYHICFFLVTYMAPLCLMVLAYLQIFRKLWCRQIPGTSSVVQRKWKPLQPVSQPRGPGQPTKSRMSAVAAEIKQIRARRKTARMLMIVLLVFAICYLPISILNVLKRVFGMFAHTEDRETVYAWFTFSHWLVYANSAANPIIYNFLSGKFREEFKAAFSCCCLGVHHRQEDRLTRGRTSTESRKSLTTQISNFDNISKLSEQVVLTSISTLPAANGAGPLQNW

SMILES | Ki (rat orexin 1 receptor) | Ki (human orexin 2 receptor) | Ki (human orexin 1 receptor)
Cc1cnc(C(=O)N2CCC[C@@H](Nc3ccc(Cl)cn3)[C@@H]2C)c(-c2ncco2)c1 [Example 77, ((2S,3R)-3-((5-chloropyridin-2-yl)amino)-2-methylpiperidin-1-yl)(5-methyl-3-(oxazol-2-yl)pyridin-2-yl)methanone] | 41 nM | 4230 nM | 60 nM
C[C@H]1[C@H](Oc2ccc(C(F)(F)F)cn2)CCCN1C(=O)c1cc(F)ccc1-c1ncccn1 [Example 138, (5-fluoro-2-(pyrimidin-2-yl)phenyl)((2S,3R)-2-methyl-3-((5-(trifluoromethyl)pyridin-2-yl)oxy)piperidin-1-yl)methanone] | 20 nM | 544 nM | 18 nM
Cc1ccc(-n2nccn2)c(C(=O)N2CCC[C@@H](Oc3cnc(C(F)(F)F)cn3)[C@@H]2C)n1 [Example 107, ((2S,3R)-2-methyl-3-((5-(trifluoromethyl)pyrazin-2-yl)oxy)piperidin-1-yl)(6-methyl-3-(2H-1,2,3-triazol-2-yl)pyridin-2-yl)methanone] | 34 nM | 2300 nM | 38 nM
C[C@H]1[C@H](Oc2ccc(C(F)(F)F)cn2)CCCN1C(=O)c1ccc(F)cc1-n1nccn1 [Example 147, (4-fluoro-2-(2H-1,2,3-triazol-2-yl)phenyl)((2S,3R)-2-methyl-3-((5-(trifluoromethyl)pyridin-2-yl)oxy)piperidin-1-yl)methanone] | 50 nM | 765 nM | 31 nM
C[C@H]1[C@H](Oc2ncc(C(F)(F)F)cc2F)CCCN1C(=O)c1ccccc1-c1ncc(F)cn1 [Example 156, ((2S,3R)-3-((3-fluoro-5-(trifluoromethyl)pyridin-2-yl)oxy)-2-methylpiperidin-1-yl)(2-(5-fluoropyrimidin-2-yl)phenyl)methanone] | 47 nM | 1300 nM | 30 nM
Cc1cnc(-n2nccn2)c(C(=O)N2CCC[C@@H](Oc3ncc(C(F)(F)F)cc3F)[C@@H]2C)c1 [Example 157, ((2S,3R)-3-((3-fluoro-5-(trifluoromethyl)pyridin-2-yl)oxy)-2-methylpiperidin-1-yl)(5-methyl-2-(2H-1,2,3-triazol-2-yl)pyridin-3-yl)methanone] | 49 nM | > 10000 nM | 27 nM
COc1ccc(C(=O)N2CCC[C@@H](Nc3ccc(C(F)(F)F)cn3)[C@@H]2C)c(-n2nccn2)c1 [Example 97, (4-methoxy-2-(2H-1,2,3-triazol-2-yl)phenyl)((2S,3R)-2-methyl-3-((5-(trifluoromethyl)pyridin-2-yl)amino)piperidin-1-yl)methanone] | 33 nM | 4900 nM | 34 nM
Cc1cnc(C(=O)N2CCC[C@@H](Oc3cnc(C(F)(F)F)cn3)[C@@H]2C)c(-n2nccn2)c1 [Example 105, ((2S,3R)-2-methyl-3-((5-(trifluoromethyl)pyrazin-2-yl)oxy)piperidin-1-yl)(5-methyl-3-(2H-1,2,3-triazol-2-yl)pyridin-2-yl)methanone] | 192 nM | > 10000 nM | 269 nM
Cc1ccc(C(=O)N2CCC[C@@H](Oc3cnc(C(F)(F)F)cn3)[C@@H]2C)c(-n2nccn2)c1 [Example 113, (4-methyl-2-(2H-1,2,3-triazol-2-yl)phenyl)((2S,3R)-2-methyl-3-((5-(trifluoromethyl)pyrazin-2-yl)oxy)piperidin-1-yl)methanone] | 25 nM | 3900 nM | 43 nM
C[C@H]1[C@H](Oc2ccc(C(F)(F)F)cn2)CCCN1C(=O)c1cccc(F)c1-c1ncccn1 [Example 116, (3-fluoro-2-(pyrimidin-2-yl)phenyl)((2S,3R)-2-methyl-3-((5-(trifluoromethyl)pyridin-2-yl)oxy)piperidin-1-yl)methanone] | 15 nM | 598 nM | 18 nM

Second part, the molecule after the results:

Ki (rat orexin 1 receptor) | Ki (human orexin 2 receptor) | Ki (human orexin 1 receptor) | SMILES
177 nM | 8900 nM | 154 nM | Cc1cnc(-c2ncccn2)c(C(=O)N2CCC[C@@H](Oc3ccc(Cl)cn3)[C@@H]2C)c1 [Example 217, ((2S,3R)-3-((5-chloropyridin-2-yl)oxy)-2-methylpiperidin-1-yl)(5-methyl-2-(pyrimidin-2-yl)pyridin-3-yl)methanone]
16 nM | 293 nM | 24 nM | C[C@H]1[C@H](Nc2ccc(C(F)(F)F)cn2)CCCN1C(=O)c1ncccc1-c1ncccn1 (relative stereo) [Example 265, ((2S*,3R*)-2-methyl-3-((5-(trifluoromethyl)pyridin-2-yl)amino)piperidin-1-yl)(3-(pyrimidin-2-yl)pyridin-2-yl)methanone]
35 nM | 370 nM | 45 nM | Cc1ccc(-c2ncccn2)c(C(=O)N2CCC[C@@H](Oc3ncc(C(F)(F)F)cc3F)[C@@H]2C)n1 [Example 223, ((2S,3R)-3-((3-fluoro-5-(trifluoromethyl)pyridin-2-yl)oxy)-2-methylpiperidin-1-yl)(6-methyl-3-(pyrimidin-2-yl)pyridin-2-yl)methanone]
238 nM | > 10000 nM | 166 nM | Cc1cnc(-n2nccn2)c(C(=O)N2CCC[C@@H](Oc3cnc(C(F)(F)F)cn3)[C@@H]2C)c1 [Example 177, (5-methyl-2-(2H-1,2,3-triazol-2-yl)pyridin-3-yl)((2S,3R)-2-methyl-3-((5-(trifluoromethyl)pyrazin-2-yl)oxy)piperidin-1-yl)methanone]
55 nM | 1300 nM | 91 nM | C[C@H]1[C@H](Oc2ncc(C(F)(F)F)cc2F)CCCN1C(=O)c1ccc(F)cc1-c1ncccn1 [Example 222, (4-fluoro-2-(pyrimidin-2-yl)phenyl)((2S,3R)-3-((3-fluoro-5-(trifluoromethyl)pyridin-2-yl)oxy)-2-methylpiperidin-1-yl)methanone]
30 nM | 1800 nM | 28 nM | Cc1cccc(C(=O)N2CCC[C@@H](Oc3ncc(C(F)(F)F)cn3)[C@@H]2C)c1-c1ncccn1 [Example 167, (3-methyl-2-(pyrimidin-2-yl)phenyl)((2S,3R)-2-methyl-3-((5-(trifluoromethyl)pyrimidin-2-yl)oxy)piperidin-1-yl)methanone]
23 nM | 620 nM | 22 nM | Cc1ccc(-n2nccn2)c(C(=O)N2CCC[C@@H](Oc3ncc(C(F)(F)F)cc3F)[C@@H]2C)n1 [Example 160, ((2S,3R)-3-((3-fluoro-5-(trifluoromethyl)pyridin-2-yl)oxy)-2-methylpiperidin-1-yl)(6-methyl-3-(2H-1,2,3-triazol-2-yl)pyridin-2-yl)methanone]
